Experimental data as given in ChEMBL document CHEMBL1909046, “DrugMatrix in vitro pharmacology data”.

Tests used:
[1] = DRUGMATRIX: Serotonin (5-Hydroxytryptamine) 5-HT3 radioligand binding (ligand: [3H] GR-65630); format: cell membranes, Membrane; details: hek293; Not Active = under 50% inhibition at 10 µM
[2] = biological target: T1, C-X-C chemokine receptor type 2 (Homo sapiens, UniProt P25025); format: cell membranes, Membrane; details: cho-k1; note: in other assays of this panel Not Active means under 50% inhibition at 10 µM
T1 sequence (P25025 whole entry): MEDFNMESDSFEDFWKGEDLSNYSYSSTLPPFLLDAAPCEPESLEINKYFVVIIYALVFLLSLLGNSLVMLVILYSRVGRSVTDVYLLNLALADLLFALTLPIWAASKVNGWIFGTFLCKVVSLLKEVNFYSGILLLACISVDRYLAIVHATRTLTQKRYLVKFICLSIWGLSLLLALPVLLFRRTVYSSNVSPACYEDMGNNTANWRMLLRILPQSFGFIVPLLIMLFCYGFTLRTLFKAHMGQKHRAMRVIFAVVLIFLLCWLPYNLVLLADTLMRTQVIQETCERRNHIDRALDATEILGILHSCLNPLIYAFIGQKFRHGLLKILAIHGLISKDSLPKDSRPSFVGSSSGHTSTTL

[3] = biological target: T2, Amine oxidase [flavin-containing] A (Homo sapiens, UniProt P21397); assay: DRUGMATRIX: Monoamine Oxidase MAO-A enzyme inhibition (substrate: Kynuramine); set-up: species or system BTI-TN-5B1-4; details: bti-tn-5b1-4; Not Active = under 50% inhibition at 10 µM
T2 sequence (P21397 whole entry): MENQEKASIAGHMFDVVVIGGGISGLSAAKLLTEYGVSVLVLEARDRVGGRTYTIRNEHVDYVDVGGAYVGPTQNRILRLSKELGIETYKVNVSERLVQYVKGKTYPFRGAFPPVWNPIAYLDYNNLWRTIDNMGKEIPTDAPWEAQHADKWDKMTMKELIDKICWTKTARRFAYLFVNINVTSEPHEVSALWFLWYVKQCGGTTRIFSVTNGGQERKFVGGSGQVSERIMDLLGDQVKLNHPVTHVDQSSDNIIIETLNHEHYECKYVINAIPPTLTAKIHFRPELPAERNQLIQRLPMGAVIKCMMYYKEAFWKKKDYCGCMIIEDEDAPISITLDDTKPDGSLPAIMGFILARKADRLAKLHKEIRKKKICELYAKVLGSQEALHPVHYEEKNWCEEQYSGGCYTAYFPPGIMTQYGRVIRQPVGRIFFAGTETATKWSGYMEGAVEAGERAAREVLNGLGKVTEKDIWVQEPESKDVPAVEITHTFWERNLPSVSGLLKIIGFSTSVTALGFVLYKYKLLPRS

Nitric oxide synthase 1 = Nitric oxide synthase 1 (Rattus norvegicus, UniProt P29476); format: tissue-based, Cerebellum; note: in other assays of this panel Not Active means under 50% inhibition at 10 µM
Nitric oxide synthase 1, sequence (P29476 whole entry): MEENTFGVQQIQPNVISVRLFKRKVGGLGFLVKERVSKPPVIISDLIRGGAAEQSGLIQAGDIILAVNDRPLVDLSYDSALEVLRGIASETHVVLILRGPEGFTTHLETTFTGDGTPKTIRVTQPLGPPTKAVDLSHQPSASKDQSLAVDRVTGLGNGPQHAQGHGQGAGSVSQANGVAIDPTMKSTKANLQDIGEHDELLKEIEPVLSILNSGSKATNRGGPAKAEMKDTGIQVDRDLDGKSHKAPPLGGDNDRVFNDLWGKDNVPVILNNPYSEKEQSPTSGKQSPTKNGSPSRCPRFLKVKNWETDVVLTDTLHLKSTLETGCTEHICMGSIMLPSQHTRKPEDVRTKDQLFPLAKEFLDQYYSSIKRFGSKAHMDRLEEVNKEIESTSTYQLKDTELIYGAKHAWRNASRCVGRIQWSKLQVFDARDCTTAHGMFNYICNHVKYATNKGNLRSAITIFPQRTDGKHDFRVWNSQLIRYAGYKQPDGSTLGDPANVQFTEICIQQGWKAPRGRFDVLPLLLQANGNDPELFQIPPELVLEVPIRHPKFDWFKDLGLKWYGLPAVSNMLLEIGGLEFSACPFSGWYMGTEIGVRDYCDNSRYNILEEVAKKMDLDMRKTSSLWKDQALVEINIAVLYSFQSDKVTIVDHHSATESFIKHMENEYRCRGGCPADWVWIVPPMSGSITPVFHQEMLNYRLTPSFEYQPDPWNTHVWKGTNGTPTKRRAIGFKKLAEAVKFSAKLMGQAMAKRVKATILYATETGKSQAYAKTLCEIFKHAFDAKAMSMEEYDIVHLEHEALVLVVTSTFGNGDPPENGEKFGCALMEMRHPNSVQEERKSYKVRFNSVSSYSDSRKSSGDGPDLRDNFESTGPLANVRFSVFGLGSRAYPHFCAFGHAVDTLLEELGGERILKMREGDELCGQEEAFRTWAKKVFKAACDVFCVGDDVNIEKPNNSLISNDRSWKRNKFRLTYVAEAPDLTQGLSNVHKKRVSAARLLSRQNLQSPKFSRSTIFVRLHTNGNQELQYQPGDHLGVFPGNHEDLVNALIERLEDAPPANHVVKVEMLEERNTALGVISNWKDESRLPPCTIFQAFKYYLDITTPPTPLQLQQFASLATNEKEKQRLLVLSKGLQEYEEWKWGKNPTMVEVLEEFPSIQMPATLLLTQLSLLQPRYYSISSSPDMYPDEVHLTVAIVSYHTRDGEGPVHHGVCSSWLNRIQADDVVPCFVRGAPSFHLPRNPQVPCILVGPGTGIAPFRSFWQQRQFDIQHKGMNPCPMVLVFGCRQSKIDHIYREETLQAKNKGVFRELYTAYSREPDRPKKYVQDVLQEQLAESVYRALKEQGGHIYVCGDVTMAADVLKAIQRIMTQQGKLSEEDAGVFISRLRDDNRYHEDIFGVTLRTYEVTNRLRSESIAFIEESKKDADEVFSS

[4] = biological target: Kappa-type opioid receptor (Homo sapiens, UniProt P41145); assay: DRUGMATRIX: Opiate kappa (OP2, KOP) radioligand binding (ligand: [3H] Diprenorphine); format: cell membranes, HEK293, Membrane; details: hek293; Not Active = under 50% inhibition at 10 µM
Kappa-type opioid receptor, sequence (P41145 whole entry): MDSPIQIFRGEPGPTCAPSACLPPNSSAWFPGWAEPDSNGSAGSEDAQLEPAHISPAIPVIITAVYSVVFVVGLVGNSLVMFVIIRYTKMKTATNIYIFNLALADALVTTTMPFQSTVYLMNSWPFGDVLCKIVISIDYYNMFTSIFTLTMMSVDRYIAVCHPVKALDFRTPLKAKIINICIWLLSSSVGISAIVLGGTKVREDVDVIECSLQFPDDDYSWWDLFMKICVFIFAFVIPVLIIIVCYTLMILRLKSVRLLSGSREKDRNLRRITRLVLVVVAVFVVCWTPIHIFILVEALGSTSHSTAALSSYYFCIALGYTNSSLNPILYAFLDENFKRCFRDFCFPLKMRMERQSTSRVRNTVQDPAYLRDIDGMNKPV

Adenosine receptor A1 = biological target: T3, Adenosine receptor A1 (Homo sapiens, UniProt P30542); format: cell membranes, CHO, Membrane; details: cho;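 note: radioligand binding assay at the adenosine A1 receptor, with DPCPX serving as the labelled ligand; in other assays of this panel Not Active means under 50% inhibition at 10 µM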
T3 sequence (P30542 whole entry): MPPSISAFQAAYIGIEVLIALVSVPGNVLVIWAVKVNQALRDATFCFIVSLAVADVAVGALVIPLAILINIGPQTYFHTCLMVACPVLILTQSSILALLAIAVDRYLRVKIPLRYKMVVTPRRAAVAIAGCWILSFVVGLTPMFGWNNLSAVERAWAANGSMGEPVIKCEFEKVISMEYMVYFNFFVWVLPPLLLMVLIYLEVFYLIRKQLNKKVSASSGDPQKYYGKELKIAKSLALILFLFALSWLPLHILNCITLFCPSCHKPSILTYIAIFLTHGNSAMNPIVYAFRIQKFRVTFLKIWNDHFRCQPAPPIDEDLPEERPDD

Cytochrome P450 2A6 = biological target: T4, Cytochrome P450 2A6 (Homo sapiens, UniProt P11509); details: bti-tn-5b1-4; note: in other assays of this panel Not Active means under 50% inhibition at 10 µM
T4 sequence (P11509 whole entry): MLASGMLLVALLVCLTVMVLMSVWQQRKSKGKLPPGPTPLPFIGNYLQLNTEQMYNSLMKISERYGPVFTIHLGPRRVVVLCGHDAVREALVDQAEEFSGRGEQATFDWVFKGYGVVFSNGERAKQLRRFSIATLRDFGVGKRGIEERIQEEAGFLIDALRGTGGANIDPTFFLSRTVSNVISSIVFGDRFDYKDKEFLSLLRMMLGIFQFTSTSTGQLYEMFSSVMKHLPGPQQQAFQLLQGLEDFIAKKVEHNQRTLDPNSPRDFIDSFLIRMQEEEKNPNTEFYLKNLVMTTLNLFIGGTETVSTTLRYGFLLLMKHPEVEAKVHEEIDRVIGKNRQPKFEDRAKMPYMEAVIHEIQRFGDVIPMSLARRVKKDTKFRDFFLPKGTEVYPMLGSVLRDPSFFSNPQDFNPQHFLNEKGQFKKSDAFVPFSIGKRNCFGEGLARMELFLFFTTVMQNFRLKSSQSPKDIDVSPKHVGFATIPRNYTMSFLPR

Cytochrome P450 2E1 = Cytochrome P450 2E1 (Homo sapiens, UniProt P05181); details: bti-tn-5b1-4; note: in other assays of this panel Not Active means under 50% inhibition at 10 µM
Cytochrome P450 2E1, sequence (P05181 whole entry): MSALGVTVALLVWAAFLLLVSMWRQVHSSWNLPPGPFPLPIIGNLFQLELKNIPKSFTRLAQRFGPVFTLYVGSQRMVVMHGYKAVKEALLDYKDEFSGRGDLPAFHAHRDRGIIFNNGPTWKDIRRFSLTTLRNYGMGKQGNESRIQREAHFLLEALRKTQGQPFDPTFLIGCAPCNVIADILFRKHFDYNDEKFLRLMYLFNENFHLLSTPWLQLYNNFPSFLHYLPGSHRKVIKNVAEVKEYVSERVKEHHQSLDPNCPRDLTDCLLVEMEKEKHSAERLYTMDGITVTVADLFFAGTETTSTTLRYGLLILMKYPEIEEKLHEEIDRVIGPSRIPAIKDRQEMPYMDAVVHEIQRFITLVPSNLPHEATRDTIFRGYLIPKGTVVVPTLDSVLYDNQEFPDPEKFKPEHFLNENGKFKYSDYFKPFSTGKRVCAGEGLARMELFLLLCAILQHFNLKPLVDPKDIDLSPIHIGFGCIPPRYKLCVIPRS

CC1(C)O[C@@H]2C[C@H]3[C@@H]4CCC5=CC(=O)C=C[C@]5(C)[C@@]4(F)[C@@H](O)C[C@]3(C)[C@]2(C(=O)CO)O1 [TRIAMCINOLONE ACETONIDE]
Not Active: IC50 [1] | Ki [1] | IC50 [2] | IC50 [3] | IC50 (Nitric oxide synthase 1) | IC50 [4] | IC50 (Adenosine receptor A1) | IC50 (Cytochrome P450 2A6) | Ki (Cytochrome P450 2A6) | IC50 (Cytochrome P450 2E1) | Ki (Cytochrome P450 2E1)

NS(=O)(=O)c1cc2c(cc1Cl)NC(C(Cl)Cl)NS2(=O)=O (configuration not stated) [TRICHLORMETHIAZIDE]
Not Active: IC50 [1] | Ki [1] | IC50 [2] | IC50 [3] | IC50 (Nitric oxide synthase 1) | IC50 [4] | IC50 (Adenosine receptor A1) | IC50 (Cytochrome P450 2A6) | Ki (Cytochrome P450 2A6) | IC50 (Cytochrome P450 2E1) | Ki (Cytochrome P450 2E1)

Cc1c(C)c2c(c(C)c1O)CCC(C)(COc1ccc(CC3SC(=O)NC3=O)cc1)O2 (configuration not stated) [TROGLITAZONE]
Not Active: IC50 [1] | Ki [1] | IC50 [2] | IC50 [3] | IC50 (Nitric oxide synthase 1) | IC50 [4] | IC50 (Adenosine receptor A1) | IC50 (Cytochrome P450 2A6) | Ki (Cytochrome P450 2A6) | IC50 (Cytochrome P450 2E1) | Ki (Cytochrome P450 2E1)

N[C@@H]1[C@H]2CN(c3nc4c(cc3F)c(=O)c(C(=O)O)cn4-c3ccc(F)cc3F)C[C@@H]12 [TROVAFLOXACIN]
Not Active: IC50 [1] | Ki [1] | IC50 [2] | IC50 [3] | IC50 (Nitric oxide synthase 1) | IC50 [4] | IC50 (Adenosine receptor A1) | IC50 (Cytochrome P450 2A6) | Ki (Cytochrome P450 2A6) | IC50 (Cytochrome P450 2E1) | Ki (Cytochrome P450 2E1)

N#CC(C#N)=Cc1ccc(O)c(O)c1 [TYRPHOSTIN 23]
Not Active: IC50 [1] | Ki [1] | IC50 [2] | IC50 [3] | IC50 (Nitric oxide synthase 1) | IC50 [4] | IC50 (Adenosine receptor A1) | IC50 (Cytochrome P450 2A6) | Ki (Cytochrome P450 2A6) | IC50 (Cytochrome P450 2E1) | Ki (Cytochrome P450 2E1)

CC[C@]1(O)C[C@H]2CN(CCc3c([nH]c4ccccc34)[C@@](C(=O)OC)(c3cc4c(cc3OC)N(C=O)[C@H]3[C@@](O)(C(=O)OC)[C@H](OC(C)=O)[C@]5(CC)C=CCN6CC[C@]43[C@@H]65)C2)C1 [VINCRISTINE]
Not Active: IC50 [1] | Ki [1] | IC50 [2] | IC50 [3] | IC50 (Nitric oxide synthase 1) | IC50 [4] | IC50 (Adenosine receptor A1) | IC50 (Cytochrome P450 2A6) | Ki (Cytochrome P450 2A6) | IC50 (Cytochrome P450 2E1) | Ki (Cytochrome P450 2E1)

CCCOc1ccccc1-c1nc2nn[nH]c2c(=O)[nH]1 [ZAPRINAST]
Not Active: IC50 [1] | Ki [1] | IC50 [2] | IC50 [3] | IC50 (Nitric oxide synthase 1) | IC50 [4] | IC50 (Adenosine receptor A1) | IC50 (Cytochrome P450 2A6) | Ki (Cytochrome P450 2A6) | IC50 (Cytochrome P450 2E1) | Ki (Cytochrome P450 2E1)
